Like-named read-outs stand apart in the source and are kept apart here.
How the values were obtained:
[1] = test system: Key Grass and Sedge Weeds as well as Grass Crops; assay: Post-emergent Test II herbicidal activity (Table 6); assay type: in vivo; conditions: post-emergence, 336 h
Method in brief: (§1)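 Visual injury ratings (0 = no injury, 100 = complete kill) were taken 14 d after treatment, relative to untreated plants. Seedlings at the first–second true leaf stage received overhead spray at 187 L/ha; the highest rate was serially diluted to ½×, ¼×, ⅛× and 1/16×.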

[2] = test system: Key Broadleaf Weed and Crop Species; assay: Post-emergent Test II herbicidal activity (Table 5); assay type: in vivo; conditions: post-emergence, 336 h, 14 days after application
Method in brief: as §1

`COC(=O)c1nc(-c2ccc(C#N)cc2F)cc(N)c1Cl` [Compound 16] was tested, and the pest or weed control at 70 g/ha ([1]; CYPES: yellow nutsedge (Cyperus esculentus), 70 g ai/ha, read-out: Visual Growth Reduction (%) 14 Days After Application, CYPES) was 95 to 100%, the pest or weed control at 140 g/ha ([1]; CYPES: yellow nutsedge (Cyperus esculentus), 140 g ai/ha, read-out: Visual Growth Reduction (%) 14 Days After Application, CYPES) was 95 to 100% and the pest or weed control at 70 g/ha ([1]; DIGSA: crabgrass (Digitaria sanguinalis), 70 g ai/ha, read-out: Visual Growth Reduction (%) 14 Days After Application, DIGSA) was 60 to 74%. The pest or weed control at 140 g/ha ([1]; DIGSA: crabgrass (Digitaria sanguinalis), 140 g ai/ha, read-out: Visual Growth Reduction (%) 14 Days After Application, DIGSA) was 75 to 84%, the pest or weed control at 70 g/ha ([1]; ECHCG: barnyardgrass (Echinochloa crus-galli), 70 g ai/ha, read-out: Visual Growth Reduction (%) 14 Days After Application, ECHCG) was 75 to 84% and the pest or weed control at 140 g/ha ([1]; ECHCG: barnyardgrass (Echinochloa crus-galli), 140 g ai/ha, read-out: Visual Growth Reduction (%) 14 Days After Application, ECHCG) was 95 to 100%. The pest or weed control at 70 g/ha ([1]; ORYSA: rice (Oryza sativa), crop, 70 g ai/ha, read-out: Visual Growth Reduction (%) 14 Days After Application, ORYSA) was 0 to 29%, the pest or weed control at 140 g/ha ([1]; ORYSA: rice (Oryza sativa), crop, 140 g ai/ha, read-out: Visual Growth Reduction (%) 14 Days After Application, ORYSA) was 0 to 29% and the pest or weed control at 70 g/ha ([1]; SETFA: giant foxtail (Setaria faberi), 70 g ai/ha, read-out: Visual Growth Reduction (%) 14 Days After Application, SETFA) was 45 to 59%. For the same molecule, the pest or weed control at 140 g/ha ([1]; SETFA: giant foxtail (Setaria faberi), 140 g ai/ha, read-out: Visual Growth Reduction (%) 14 Days After Application, SETFA) was 60 to 74%, the pest or weed control at 70 g/ha ([1]; SORVU: grain sorghum (Sorghum vulgare), 70 g ai/ha, read-out: Visual Growth Reduction (%) 14 Days After Application, SORVU) was 60 to 74% and the pest or weed control at 140 g/ha ([1]; SORVU: grain sorghum (Sorghum vulgare), 140 g ai/ha, read-out: Visual Growth Reduction (%) 14 Days After Application, SORVU) was 60 to 74%. It also gave a pest or weed control at 70 g/ha ([1]; TRZSS (wheat, Triticum aestivum), crop, 70 g ai/ha, read-out: Visual Growth Reduction (%) 14 Days After Application, TRZSS) of 30 to 44%, a pest or weed control at 140 g/ha ([1]; TRZSS (wheat, Triticum aestivum), crop, 140 g ai/ha, read-out: Visual Growth Reduction (%) 14 Days After Application, TRZSS) of 45 to 59% and a pest or weed control at 70 g/ha ([1]; ZEAMX: maize, corn (Zea mays), crop, 70 g ai/ha, read-out: Visual Growth Reduction (%) 14 Days After Application, ZEAMX) of 85 to 94%. It also gave a pest or weed control at 140 g/ha ([1]; ZEAMX: maize, corn (Zea mays), crop, 140 g ai/ha, read-out: Visual Growth Reduction (%) 14 Days After Application, ZEAMX) of 85 to 94%, a pest or weed control at 70 g/ha ([2]; ABUTH: velvetleaf (Abutilon theophrasti), application rate 70 g ai/ha, read-out: Visual Growth Reduction (%) 14 Days After Application, ABUTH) of 85 to 94% and a pest or weed control at 140 g/ha ([2]; ABUTH: velvetleaf (Abutilon theophrasti), application rate 140 g ai/ha, read-out: Visual Growth Reduction (%) 14 Days After Application, ABUTH) of 95 to 100%. For the same molecule, the pest or weed control at 140 g/ha ([2]; AMARE: redroot pigweed (Amaranthus retroflexus), application rate 140 g ai/ha, read-out: Visual Growth Reduction (%) 14 Days After Application, AMARE) was 95 to 100%, the pest or weed control at 70 g/ha ([2]; BRSNN: oilseed-rape, canola (Brassica napus), application rate 70 g ai/ha, read-out: Visual Growth Reduction (%) 14 Days After Application, BRSNN) was 0 to 29% and the pest or weed control at 140 g/ha ([2]; BRSNN: oilseed-rape, canola (Brassica napus), application rate 140 g ai/ha, read-out: Visual Growth Reduction (%) 14 Days After Application, BRSNN) was 0 to 29%. It also gave a pest or weed control at 70 g/ha ([2]; CHEAL: lambsquarters (Chenopodium album), application rate 70 g ai/ha, read-out: Visual Growth Reduction (%) 14 Days After Application, CHEAL) of 95 to 100%, a pest or weed control at 140 g/ha ([2]; CHEAL: lambsquarters (Chenopodium album), application rate 140 g ai/ha, read-out: Visual Growth Reduction (%) 14 Days After Application, CHEAL) of 95 to 100% and a pest or weed control at 70 g/ha ([2]; EPHHL: wild poinsettia (Euphorbia heterophylla), application rate 70 g ai/ha, read-out: Visual Growth Reduction (%) 14 Days After Application, EPHHL) of 95 to 100%. For the same molecule, the pest or weed control at 140 g/ha ([2]; EPHHL: wild poinsettia (Euphorbia heterophylla), application rate 140 g ai/ha, read-out: Visual Growth Reduction (%) 14 Days After Application, EPHHL) was 95 to 100%, the pest or weed control at 70 g/ha ([2]; HELAN: sunflower (Helianthus annuus), application rate 70 g ai/ha, read-out: Visual Growth Reduction (%) 14 Days After Application, HELAN) was 95 to 100% and the pest or weed control at 140 g/ha ([2]; HELAN: sunflower (Helianthus annuus), application rate 140 g ai/ha, read-out: Visual Growth Reduction (%) 14 Days After Application, HELAN) was 95 to 100%. The pest or weed control at 70 g/ha ([2]; VIOTR: wild pansy (Viola tricolor), application rate 70 g ai/ha, read-out: Visual Growth Reduction (%) 14 Days After Application, VIOTR) was 30 to 44% and the pest or weed control at 140 g/ha ([2]; VIOTR: wild pansy (Viola tricolor), application rate 140 g ai/ha, read-out: Visual Growth Reduction (%) 14 Days After Application, VIOTR) was 30 to 44%.
With `C=Cc1c(C(=O)O)nc(-c2ccc(I)cc2)c(F)c1N` [Compound 17] the pest or weed control at 70 g/ha ([1]; Triticum aestivum, TRZSS (wheat), application rate 70 g ai/ha, read-out: Visual Growth Reduction (%) 14 Days After Application, TRZSS) was 30 to 44%, the pest or weed control at 140 g/ha ([1]; Triticum aestivum, TRZSS (wheat), application rate 140 g ai/ha, read-out: Visual Growth Reduction (%) 14 Days After Application, TRZSS) was 45 to 59% and the pest or weed control at 70 g/ha ([1]; CYPES: yellow nutsedge (Cyperus esculentus), application rate 70 g ai/ha, read-out: Visual Growth Reduction (%) 14 Days After Application, CYPES) was 95 to 100%. It also gave a pest or weed control at 140 g/ha ([1]; CYPES: yellow nutsedge (Cyperus esculentus), application rate 140 g ai/ha, read-out: Visual Growth Reduction (%) 14 Days After Application, CYPES) of 95 to 100%, a pest or weed control at 70 g/ha ([1]; DIGSA: crabgrass (Digitaria sanguinalis), application rate 70 g ai/ha, read-out: Visual Growth Reduction (%) 14 Days After Application, DIGSA) of 0 to 29% and a pest or weed control at 140 g/ha ([1]; DIGSA: crabgrass (Digitaria sanguinalis), application rate 140 g ai/ha, read-out: Visual Growth Reduction (%) 14 Days After Application, DIGSA) of 0 to 29%. It also gave a pest or weed control at 70 g/ha ([1]; ECHCG: barnyardgrass (Echinochloa crus-galli), application rate 70 g ai/ha, read-out: Visual Growth Reduction (%) 14 Days After Application, ECHCG) of 75 to 84%, a pest or weed control at 140 g/ha ([1]; ECHCG: barnyardgrass (Echinochloa crus-galli), application rate 140 g ai/ha, read-out: Visual Growth Reduction (%) 14 Days After Application, ECHCG) of 85 to 94% and a pest or weed control at 70 g/ha ([1]; ORYSA: rice (Oryza sativa), application rate 70 g ai/ha, read-out: Visual Growth Reduction (%) 14 Days After Application, ORYSA) of 60 to 74%. For the same molecule, the pest or weed control at 140 g/ha ([1]; ORYSA: rice (Oryza sativa), application rate 140 g ai/ha, read-out: Visual Growth Reduction (%) 14 Days After Application, ORYSA) was 85 to 94%, the pest or weed control at 70 g/ha ([1]; SETFA: giant foxtail (Setaria faberi), application rate 70 g ai/ha, read-out: Visual Growth Reduction (%) 14 Days After Application, SETFA) was 0 to 29% and the pest or weed control at 140 g/ha ([1]; SETFA: giant foxtail (Setaria faberi), application rate 140 g ai/ha, read-out: Visual Growth Reduction (%) 14 Days After Application, SETFA) was 45 to 59%. The pest or weed control at 70 g/ha ([1]; SORVU: grain sorghum (Sorghum vulgare), application rate 70 g ai/ha, read-out: Visual Growth Reduction (%) 14 Days After Application, SORVU) was 85 to 94%, the pest or weed control at 140 g/ha ([1]; SORVU: grain sorghum (Sorghum vulgare), application rate 140 g ai/ha, read-out: Visual Growth Reduction (%) 14 Days After Application, SORVU) was 95 to 100% and the pest or weed control at 70 g/ha ([1]; ZEAMX: maize, corn (Zea mays), application rate 70 g ai/ha, read-out: Visual Growth Reduction (%) 14 Days After Application, ZEAMX) was 60 to 74%. The pest or weed control at 140 g/ha ([1]; ZEAMX: maize, corn (Zea mays), application rate 140 g ai/ha, read-out: Visual Growth Reduction (%) 14 Days After Application, ZEAMX) was 75 to 84%, the pest or weed control at 70 g/ha ([2]; ABUTH: velvetleaf (Abutilon theophrasti), 70 g ai/ha, post-emergent, read-out: Visual Growth Reduction (%) 14 Days After Application ABUTH) was 95 to 100% and the pest or weed control at 140 g/ha ([2]; ABUTH: velvetleaf (Abutilon theophrasti), 140 g ai/ha, post-emergent, read-out: Visual Growth Reduction (%) 14 Days After Application ABUTH) was 95 to 100%. The pest or weed control at 70 g/ha ([2]; AMARE: redroot pigweed (Amaranthus retroflexus), 70 g ai/ha, post-emergent, read-out: Visual Growth Reduction (%) 14 Days After Application AMARE) was 95 to 100%, the pest or weed control at 140 g/ha ([2]; AMARE: redroot pigweed (Amaranthus retroflexus), 140 g ai/ha, post-emergent, read-out: Visual Growth Reduction (%) 14 Days After Application AMARE) was 95 to 100% and the pest or weed control at 70 g/ha ([2]; BRSNN: oilseed-rape, canola (Brassica napus), 70 g ai/ha, post-emergent, read-out: Visual Growth Reduction (%) 14 Days After Application BRSNN) was 95 to 100%. It also gave a pest or weed control at 140 g/ha ([2]; BRSNN: oilseed-rape, canola (Brassica napus), 140 g ai/ha, post-emergent, read-out: Visual Growth Reduction (%) 14 Days After Application BRSNN) of 95 to 100%, a pest or weed control at 70 g/ha ([2]; CHEAL: lambsquarters (Chenopodium album), 70 g ai/ha, post-emergent, read-out: Visual Growth Reduction (%) 14 Days After Application CHEAL) of 85 to 94% and a pest or weed control at 140 g/ha ([2]; CHEAL: lambsquarters (Chenopodium album), 140 g ai/ha, post-emergent, read-out: Visual Growth Reduction (%) 14 Days After Application CHEAL) of 95 to 100%. It also gave a pest or weed control at 70 g/ha ([2]; EPHHL: wild poinsettia (Euphorbia heterophylla), 70 g ai/ha, post-emergent, read-out: Visual Growth Reduction (%) 14 Days After Application EPHHL) of 95 to 100%, a pest or weed control at 140 g/ha ([2]; EPHHL: wild poinsettia (Euphorbia heterophylla), 140 g ai/ha, post-emergent, read-out: Visual Growth Reduction (%) 14 Days After Application EPHHL) of 95 to 100% and a pest or weed control at 70 g/ha ([2]; HELAN: sunflower (Helianthus annuus), 70 g ai/ha, post-emergent, read-out: Visual Growth Reduction (%) 14 Days After Application HELAN) of 85 to 94%. The pest or weed control at 140 g/ha ([2]; HELAN: sunflower (Helianthus annuus), 140 g ai/ha, post-emergent, read-out: Visual Growth Reduction (%) 14 Days After Application HELAN) was 95 to 100%, the pest or weed control at 70 g/ha ([2]; VIOTR: wild pansy (Viola tricolor), 70 g ai/ha, post-emergent, read-out: Visual Growth Reduction (%) 14 Days After Application VIOTR) was 0 to 29% and the pest or weed control at 140 g/ha ([2]; VIOTR: wild pansy (Viola tricolor), 140 g ai/ha, post-emergent, read-out: Visual Growth Reduction (%) 14 Days After Application VIOTR) was 0 to 29%.

Reference: patent US9113629B2, “4-amino-6-(4-substituted-phenyl)-picolinates and 6-amino-2-(4-substituted-phenyl)-pyrimidine-4-carboxylates and their use as herbicides” (DOW AGROSCIENCES LLC, priority 2013, dated 2015)
